Consider 18 compounds from ChEMBL document CHEMBL4616701, “Design, Synthesis, and Pharmacological Evaluation of Second Generation EZH2 Inhibitors with Long Residence Time” (ACS Med Chem Lett, 2020).

Data set [1] deals with T1, Histone-lysine N-methyltransferase EZH2 (Homo sapiens, UniProt Q15910). Put plainly: Inhibition of EZH2 in human HeLa cells assessed as inhibition of trimethylation of H3K27 after 72 hrs by AlphaLISA assay. The data set is classed as cell-based.
Target sequence in this assay (Q15910 whole entry): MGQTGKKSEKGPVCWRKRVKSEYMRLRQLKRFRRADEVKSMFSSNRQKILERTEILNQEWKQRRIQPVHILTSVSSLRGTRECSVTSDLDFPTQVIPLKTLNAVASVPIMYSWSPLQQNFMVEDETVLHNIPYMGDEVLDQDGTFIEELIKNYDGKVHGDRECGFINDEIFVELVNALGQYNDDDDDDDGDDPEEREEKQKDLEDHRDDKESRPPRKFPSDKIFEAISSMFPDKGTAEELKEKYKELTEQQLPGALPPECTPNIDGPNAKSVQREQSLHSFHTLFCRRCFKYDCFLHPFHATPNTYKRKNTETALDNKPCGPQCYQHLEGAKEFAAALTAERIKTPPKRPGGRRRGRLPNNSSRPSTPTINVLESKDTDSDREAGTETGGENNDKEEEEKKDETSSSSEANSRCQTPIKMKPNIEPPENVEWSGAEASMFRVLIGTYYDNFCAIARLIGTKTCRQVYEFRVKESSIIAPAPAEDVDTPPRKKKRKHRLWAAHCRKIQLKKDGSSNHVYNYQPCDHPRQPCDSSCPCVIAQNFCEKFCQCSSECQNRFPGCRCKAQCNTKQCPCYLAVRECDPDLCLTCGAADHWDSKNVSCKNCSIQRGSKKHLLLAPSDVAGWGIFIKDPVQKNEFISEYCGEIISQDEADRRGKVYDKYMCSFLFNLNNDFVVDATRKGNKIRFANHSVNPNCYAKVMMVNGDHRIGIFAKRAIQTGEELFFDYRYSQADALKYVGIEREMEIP
The target in data set [2] is T1, Histone-lysine N-methyltransferase EZH2. The data set is described as follows: Binding affinity to N-terminal FLAG-tagged EZH2 in PRC2 complex (unknown origin) expressed in baculovirus infected Sf9 cells assessed as residence time at 21 nM pre-equilibrated with enzyme followed by incubation with bio-EZH2i and measured after 3 to 6 mins by TR-FRET assay.
Target sequence in this assay (Q15910 whole entry, looked up): as the sequence (Q15910 whole entry) above
Another data set concerns KARPAS-422. The data set is described as follows: Antiproliferative activity against human KARPAS422 cells assessed as growth inhibition after 8 days by Cell Titer-Glo luminescent assay. It counts as functional. The settings on record: KARPAS-422, 192 h.
For data set [3], the target named is T1, Histone-lysine N-methyltransferase EZH2. The data set is described as follows: Inhibition of N-terminal FLAG-tagged EZH2 in PRC2 complex (unknown origin) expressed in baculovirus infected Sf9 cells using H2N-RKQLATKAAR(Kme0)SAPATGGVKKP-NTPEGBiot peptide as substrate preincubated with [3H]SAM for 4 to 5 hrs followed by substrate addition and measured after 20 hrs by Topcount reader analysis.
Target sequence in this assay (Q15910 whole entry): as above

A further data set concerns CYP3A4. Put plainly: Upregulation of CYP3A4 mRNA expression in human Fa2N-4 cells at 10 uM after 3 days relative to control. It counts as ADME, cell-based. The settings on record: read-out: FC.

pEC50, pIC50: −log10 of the molar value.

As usually defined, the pEC50 is the negative decadic logarithm of the EC50, by convention in mol/L. One may read the GI50 as the concentration that inhibits growth by half. By pIC50 is commonly meant the negative decadic logarithm of the IC50, by convention in mol/L. Higher therefore signals a low IC50.

In the case of `CSc1cc(C)[nH]c(=O)c1CNC(=O)c1c(C)n([C@H](C)[C@H]2CC[C@H](N3CC(OC4CC4)C3)CC2)c2c(F)cccc12`, the pEC50 in data set [1] is 8.47. Moreover, the TIME in data set [2] is 100 h. Also, in the data set with KARPAS-422, the GI50 turned out to be 32 nM. Also, the pIC50 in data set [3] is 10.20.

Consider `Cc1cc(SC2CCC2)c(CNC(=O)c2c(C)n([C@H](C)C3CCN(CC(F)(F)F)CC3)c3ccccc23)c(=O)[nH]1`, for which the pEC50 in data set [1] is 7.31. In data set [3], the pIC50 was 9.31.

With `CSc1cc(C)[nH]c(=O)c1CNC(=O)c1c(C)n([C@H](C)[C@H]2OC[C@H](N(C)C)CO2)c2ccccc12`, the pEC50 in data set [1] is 8.62. The TIME in data set [2] is 40.9 h. In the data set on CYP3A4, the fold induction at 72 h, 10 µM was 3. Besides, the pIC50 in data set [3] was 9.80.

Take `COc1cc(C)[nH]c(=O)c1CNC(=O)c1c(C)n([C@H](C)C2CCN(CC(F)(F)F)CC2)c2ccccc12` [CPI-1205]: the TIME in data set [2] came to 4.5 h. For the same compound, the GI50 in the data set on KARPAS-422 is 436 nM.

Take `Cc1cc(S(C)(=O)=O)c(CNC(=O)c2c(C)n([C@H](C)C3CCN(CC(F)(F)F)CC3)c3ccccc23)c(=O)[nH]1`: the pEC50 in data set [1] was less than 6.52. Besides, in data set [3], the pIC50 was 8.39.

`CSc1cc(C)[nH]c(=O)c1CNC(=O)c1c(C)n([C@H](C)[C@H]2CC[C@H](N3CC(OC4CC4)C3)CC2)c2ncncc12`: in data set [1], the negative logarithm of the EC50 (pEC50) was 8.20. For the same compound, the TIME in data set [2] was determined as 51.9 h. Moreover, in the data set on KARPAS-422, the GI50 is 29 nM. The pIC50 in data set [3] is 10.00.

`CSc1cc(C)[nH]c(=O)c1CNC(=O)c1c(C)n([C@H](C)C2CCN(C3COC3)CC2)c2ccccc12`: in data set [1], the pEC50 is 8.29. Further, in data set [2], the TIME is 42.5 h. The fold induction at 72 h, 10 µM in the data set with CYP3A4 worked out at 6.4. The pIC50 in data set [3] was 9.92.

Regarding `COc1cc(C)c(CNC(=O)c2c(C)n([C@H](C)C3CCN(CC(F)(F)F)CC3)c3ccccc23)c(=O)[nH]1`, in data set [1], the pEC50 was less than 6.00. The pIC50 in data set [3] is 7.52 to 9.70.

As for `Cc1cc([S+](C)[O-])c(CNC(=O)c2c(C)n([C@H](C)C3CCN(CC(F)(F)F)CC3)c3ccccc23)c(=O)[nH]1` (some centres not stated), the pEC50 in data set [1] is less than 6.52. Moreover, in data set [3], the pIC50 was 7.72.

`CSc1cc(C)[nH]c(=O)c1CNC(=O)c1c(C)n([C@H](C)[C@H]2CC[C@@H](N3CC(F)(F)C3)CC2)c2ccccc12`: the pEC50 in data set [1] was 8.23. The TIME in data set [2] was determined as 29.1 h. For the same compound, the fold induction at 72 h, 10 µM in the data set with CYP3A4 is 45. The compound also showed a pIC50 in data set [3] of 9.74.

Regarding `Cc1cc(Cl)[nH]c(=O)c1CNC(=O)c1c(C)n([C@H](C)C2CCN(CC(F)(F)F)CC2)c2ccccc12`, the pEC50 in data set [1] was less than 6.00. In addition, in data set [3], the pIC50 is 7.52 to 9.70.

For the compound `CSc1cc(C)[nH]c(=O)c1CNC(=O)c1c(C)n([C@H](C)[C@H]2CC[C@H](NC3COC3)CC2)c2ccccc12`, the negative logarithm of the EC50 (pEC50) in data set [1] was 8.17. Moreover, in data set [2], the TIME amounted to 138 h. For the same compound, in the data set with CYP3A4, the fold induction at 72 h, 10 µM is 5. For the same compound, the pIC50 in data set [3] was 9.89.

Take `Cc1cc(Cl)c(CNC(=O)c2c(C)n([C@H](C)C3CCN(CC(F)(F)F)CC3)c3ccccc23)c(=O)[nH]1`: in data set [1], the pEC50 is greater than 7.00. For the same compound, in data set [3], the negative-log IC50 (pIC50) is 7.52 to 9.70.

Regarding `Cc1cc(C)c(CNC(=O)c2c(C)n([C@H](C)C3CCN(CC(F)(F)F)CC3)c3ccccc23)c(=O)[nH]1`, in data set [3], the negative logarithm of the IC50 (pIC50) is 7.52 to 9.70.

As to `CCSc1cc(C)[nH]c(=O)c1CNC(=O)c1c(C)n([C@H](C)C2CCN(CC(F)(F)F)CC2)c2ccccc12`, the pEC50 in data set [1] is 7.34. The same compound gave a pIC50 in data set [3] of 9.14.

Turning to `CSc1cc(C)[nH]c(=O)c1CNC(=O)c1c(C)n([C@H](C)C2CCN(CC(C)(C)O)CC2)c2ccccc12`, the negative logarithm of the EC50 (pEC50) in data set [1] was 7.59. For the same compound, the TIME in data set [2] was 7.52 h. The compound further had a negative-log IC50 (pIC50) in data set [3] of 10.17.

As for `Cc1cc(SCc2ccccc2)c(CNC(=O)c2c(C)n([C@H](C)C3CCN(CC(F)(F)F)CC3)c3ccccc23)c(=O)[nH]1`, in data set [3], the negative-log IC50 (pIC50) was 8.42.

With `Cc1cc(Sc2ccccc2)c(CNC(=O)c2c(C)n([C@H](C)C3CCN(CC(F)(F)F)CC3)c3ccccc23)c(=O)[nH]1`, the negative-log EC50 (pEC50) in data set [1] is 6.74. For the same compound, in data set [3], the negative-log IC50 (pIC50) was 9.21.
